By logP is commonly meant the decadic logarithm of the partition coefficient of the neutral form, usually between octanol and water. Low readings indicate lower lipophilicity, high ones higher lipophilicity. `CCCCN(CCCC)CC(=O)NC1COc2ccc(Cl)cc21` (stereo not drawn) came in with a logP of 4.44.

For the molecule `CCCCN(CCCC)CC(=O)NC1COc2ccccc21` (stereo not drawn), the logP is 4.15. `COc1ccc2c(c1)OCC2NC(=O)CN1CCOCC1` (stereo not drawn) returned a logP of 0.92. The molecule `O=C(CN1CCOCC1)NC1COc2ccc(Cl)cc21` (stereo not drawn) had a log partition coefficient (logP) of 1.55.

Take `O=C(CN1CCCCC1)NC1COc2ccccc21` (stereo not drawn): the log partition coefficient (logP) is 2.3. For the molecule `Cc1ccc2c(c1)C(NC(=O)CN1CCCCC1)CO2` (stereo not drawn), the logP is 2.78. In turn, `Cc1ccc2c(c1)C(NC(=O)CN1CCOCC1)CO2` (stereo not drawn) came in with a logP of 1.38.

In turn, `COc1ccc2c(c1)OCC2NC(=O)CN1CCCCC1` (stereo not drawn) came in with a logP of 2.41. The same measure for `CCN(CC)CC(=O)NC1COc2ccc(Cl)cc21` (stereo not drawn): 2.88. `Cc1ccc2c(c1)C(NC(=O)CN1CCCC1)CO2` (stereo not drawn) gave a logP of 2.24. Under `CCN(CC)CC(=O)NC1COc2ccccc21` (stereo not drawn) stands 2.2; under `O=C(CN1CCCC1)NC1COc2ccc(Cl)cc21` (stereo not drawn), 2.47; under `CCCCN(CCCC)CC(=O)NC1COc2cc(OC)ccc21` (stereo not drawn), 4.24.

In the case of `O=C(CN1CCOCC1)NC1COc2ccccc21` (stereo not drawn), the log partition coefficient (logP) was 0.81. Consider `CCN(CC)CC(=O)NC1COc2ccc(C)cc21` (stereo not drawn), for which the logP was 2.69. Under `O=C(CN1CCCCC1)NC1COc2ccc(Cl)cc21` (stereo not drawn) stands 3.01; under `O=C(CN1CCCC1)NC1COc2ccccc21` (stereo not drawn), 1.76. As to `CCCCN(CCCC)CC(=O)NC1COc2ccc(C)cc21` (stereo not drawn), the logP came out at 4.43.

For the origin of these results see the SangsterLogP compilation.
